How the values were obtained:
α-Chymotrypsin = α-Chymotrypsin (Bos taurus, UniProt P00766, DEL14-15/DEL147-148); assay: Selectivity of protease inhibition: α-chymotrypsin; format: biochemical; details: concentration not given
[1] = molecular target: 20S proteasome peptidylglutamyl-peptide hydrolyzing activity (Bos taurus, UniProt Q3MHN0)
Method: (§1) Experiments involving the proteasome were performed as follows: 20S proteasome (˜5 ng/μl) in 10 mM Tris-HCl, pH 7.5, 1 mM EDTA was incubated at 25° C. in the presence of lactacystin or lactacystin analogs in DMSO or MeOH [not exceeding 5% (v/v)]. Aliquots for fluorescence assay were removed at various times following addition of compound and diluted in 10 mM Tris-HCl, pH 7.5, 1 mM EDTA containing fluorogenic peptide substrates (100 μM final). Suc-LLVY-AMC, Cbz-GGR-βNA and […] (AMC=7-amido-4-methylcoumarin; βNA=β-naphthylamide) were used to assay for the chymotrypsin-like, trypsin-like and peptidylglutamyl-peptide hydrolyzing activities, respectively.
(§2) Fluorescent emission at 460 nm with excitation at 380 nm was measured for AMC-containing substrates, and emission at 410 nm with excitation at 335 nm was measured for βNA-containing substrates. The fluorescence assays were conducted at 25° C., each experiment was performed at least three times, and values represent mean±standard deviation.
(§3) The reversibility of the inhibitory effects was assessed by measuring residual peptidase activity after removal of excess inhibitor by extensive serial dilution/ultrafiltration.

[2] = molecular target: T1, 20S proteasome trypsin-like activity (Bos taurus, UniProt Q2TBP0); assay: Kinetics of inhibition of 20S proteasome trypsin-like activity (Cbz-GGR-βNA); format: biochemical, bovine
T1 construct: from tissue; host or cells: bovine brain
Method: as §1, §2, §3

[3] = molecular target: T2, 20S proteasome chymotrypsin-like activity (Bos taurus, UniProt Q32KL2); assay: Kinetics of inhibition of 20S proteasome chymotrypsin-like activity (Suc-LLVY-AMC); format: biochemical, bovine
T2 construct: from tissue; host or cells: bovine brain
Method: as §1, §2, §3

Trypsin = molecular target: T3, Trypsin (Bos taurus, UniProt P00760); assay: Selectivity of protease inhibition: trypsin; format: biochemical; details: concentration not given
T3 construct: gene PRSS1
T3 sequence (P00760 24-246): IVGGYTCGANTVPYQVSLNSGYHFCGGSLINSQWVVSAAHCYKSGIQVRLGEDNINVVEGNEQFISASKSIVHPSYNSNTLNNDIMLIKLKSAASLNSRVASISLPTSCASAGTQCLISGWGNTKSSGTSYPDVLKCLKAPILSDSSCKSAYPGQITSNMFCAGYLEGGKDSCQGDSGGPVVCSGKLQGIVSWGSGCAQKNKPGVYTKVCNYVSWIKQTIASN

Papain = molecular target: T4, Papain (Carica papaya, UniProt P00784); assay: Selectivity of protease inhibition: papain; format: biochemical; details: concentration not given
T4 sequence (P00784 134-345): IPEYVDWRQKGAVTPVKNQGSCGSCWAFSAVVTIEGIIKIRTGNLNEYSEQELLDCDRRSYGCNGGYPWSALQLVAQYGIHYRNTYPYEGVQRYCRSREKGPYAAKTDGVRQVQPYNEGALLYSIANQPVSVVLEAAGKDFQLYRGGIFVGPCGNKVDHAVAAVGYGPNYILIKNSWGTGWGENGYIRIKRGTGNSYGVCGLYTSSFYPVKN

[4] = residual activity after removal of excess inhibitor by serial dilution/ultrafiltration

CC(C)[C@H](O)[C@@]12NC(=O)[C@H](C)[C@@H]1OC2=O [β-Lactone, clasto-lactacystin β-lactone]
inhibition of α-chymotrypsin activity (α-Chymotrypsin): do not inhibit | κassoc = κobs/[I], Peptidylglutamyl-peptide hydrolyzing activity (Cbz-LLE-βNA) ([1]; compound 50 μM, 25° C.): 59 ± 17 s^−1M^−1 | PGPH activity inhibited faster than by lactacystin ([1]; relative to lactacystin): 15-20 times | reversibility of inhibition of PGPH activity [1, 4]: reversibly | κassoc = κobs/[I], Trypsin-like activity (Cbz-GGR-βNA) ([2]; compound 5 μM, 25° C.): 208 ± 21 s^−1M^−1 | trypsin-like activity inhibited faster than by lactacystin ([2]; relative to lactacystin): 15-20 times | reversibility of inhibition of trypsin-like activity [2, 4]: irreversibly | κassoc = κobs/[I], Chymotrypsin-like activity (Suc-LLVY-AMC) ([3]; compound 1 μM, 25° C.): 3059 ± 478 s^−1M^−1 | chymotrypsin-like activity inhibited faster than by lactacystin ([3]; relative to lactacystin): 15-20 times | reversibility of inhibition of chymotrypsin-like activity [3, 4]: irreversibly | inhibition of trypsin activity (Trypsin): do not inhibit | inhibition of papain activity (Papain): do not inhibit
